Assay results from patent US9440982B2 (Eolas Therapeutics, Inc., priority 2012, dated 2016).

Assays:
CYP3A4 = target: T1, CYP3A4 (Homo sapiens, UniProt P08684); experiment: Cytochrome P450 inhibition assay (midazolam hydroxylation); format: in vitro ADME; conditions: human, human liver microsomes, probe midazolam (hydroxylation to 1′-hydroxymidazolam), 10 μM test compound, midazolam at approximately its Km
T1 construct: pre-incubated with human liver microsomes and NADPH; from tissue; host or cells: human liver microsomes
T1 sequence (P08684 whole entry): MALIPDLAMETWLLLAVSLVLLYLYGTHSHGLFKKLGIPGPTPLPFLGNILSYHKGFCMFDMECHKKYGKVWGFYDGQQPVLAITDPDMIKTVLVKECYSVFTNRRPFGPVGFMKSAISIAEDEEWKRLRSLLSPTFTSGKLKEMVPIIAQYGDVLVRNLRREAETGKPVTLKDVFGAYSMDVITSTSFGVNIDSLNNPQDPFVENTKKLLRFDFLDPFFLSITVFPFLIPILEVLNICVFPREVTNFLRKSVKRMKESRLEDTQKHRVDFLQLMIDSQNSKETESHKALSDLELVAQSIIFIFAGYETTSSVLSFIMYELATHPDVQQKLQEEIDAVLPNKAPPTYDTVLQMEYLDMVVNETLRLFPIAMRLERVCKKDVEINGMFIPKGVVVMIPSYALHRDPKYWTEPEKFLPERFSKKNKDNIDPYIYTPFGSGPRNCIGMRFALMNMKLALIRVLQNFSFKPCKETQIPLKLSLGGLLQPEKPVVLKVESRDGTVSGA
Outline: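 Human liver microsomes; CYP3A4 activity as midazolam 1′-hydroxylation with substrate near Km, with or without 10 μM test compound, read as percent inhibition. For time-dependent inhibition, parallel samples were preincubated 30 min with NADPH before substrate, and percent inhibition compared with non-preincubated samples.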

OX2 = target: T2, OX2 (Homo sapiens, UniProt O43614); experiment: Orexin receptor cell-based functional assay, [Ca2+]i by FLIPR, CHO-OX2 cells; conditions: [Ca2+]i by FLIPR, antagonist dose-range 0.1 nM-10 μM, EC90 of OXA, read-out: OX2
T2 construct: expressed in transfected cells; host or cells: CHO (CHO-OX2, kept under selection antibiotic)
T2 sequence (O43614 1-444): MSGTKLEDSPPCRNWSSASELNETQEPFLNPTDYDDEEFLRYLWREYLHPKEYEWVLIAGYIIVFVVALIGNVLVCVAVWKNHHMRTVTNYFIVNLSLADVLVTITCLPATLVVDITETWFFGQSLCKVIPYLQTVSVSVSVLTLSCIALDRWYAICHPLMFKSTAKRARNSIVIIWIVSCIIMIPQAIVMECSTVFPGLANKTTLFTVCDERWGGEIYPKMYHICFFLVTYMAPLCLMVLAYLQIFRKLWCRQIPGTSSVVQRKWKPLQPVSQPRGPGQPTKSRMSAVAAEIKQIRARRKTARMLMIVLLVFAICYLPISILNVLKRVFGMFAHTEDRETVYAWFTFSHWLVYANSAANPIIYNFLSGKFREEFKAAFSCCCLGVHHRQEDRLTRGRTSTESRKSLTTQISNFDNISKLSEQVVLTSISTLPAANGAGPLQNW
Method: Measurement of [Ca^2+]i using a FLIPR: CHO—OX1 or CHO—OX2 cells are seeded into black-walled clear-base 384-well plates (Costar) at a density of 20,000 cells per well in F12-K medium supplemented with 10% FBS and selection antibiotic (500 ug/ml G418 or 15 ug/ml Blasticidin) and cultured overnight. The cells are incubated with equal volume of calcium4 loading buffer (Molecular Devices, Inc.) containing 2.5 mM probenecid at 37° C. for 30 min, followed by putative OX1 or OX2 receptor antagonists (dose-range 0.1 nM-10 μM) for another 30 min.
The cells are incubated with equal volume of calcium6 loading buffer (Molecular Devices, Inc.) containing 2.5 mM probenecid at 37° C. for 2 h, followed by test compounds (dose-range 0.1 nM-10 μM) for another 30 min.

OX1 = target: T3, OX1 (Homo sapiens, UniProt O43613); experiment: Orexin receptor cell-based functional assay, [Ca2+]i by FLIPR, CHO-OX1 cells; conditions: CHO-OX1 cells, [Ca2+]i by FLIPR, antagonist dose-range 0.1 nM-10 μM, EC90 of OXA; read-out: OX1
T3 construct: expressed in transfected cells; host or cells: CHO (CHO-OX1, kept under selection antibiotic)
T3 sequence (O43613 1-425): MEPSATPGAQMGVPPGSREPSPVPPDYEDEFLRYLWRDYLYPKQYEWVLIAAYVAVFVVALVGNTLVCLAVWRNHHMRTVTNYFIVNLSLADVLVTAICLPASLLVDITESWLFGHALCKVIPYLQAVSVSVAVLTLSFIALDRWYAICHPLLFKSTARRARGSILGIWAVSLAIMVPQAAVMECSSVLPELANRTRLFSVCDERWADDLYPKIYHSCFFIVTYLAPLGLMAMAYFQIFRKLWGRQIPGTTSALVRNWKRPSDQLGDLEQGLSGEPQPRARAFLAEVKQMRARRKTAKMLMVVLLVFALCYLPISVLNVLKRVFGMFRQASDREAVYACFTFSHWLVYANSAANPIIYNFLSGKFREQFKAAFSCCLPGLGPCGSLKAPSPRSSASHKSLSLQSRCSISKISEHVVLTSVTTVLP
Outline: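 CHO cells expressing human OX1 or OX2 loaded with calcium dye plus 2.5 mM probenecid at 37° C (calcium4, 30 min, or calcium6, 2 h), then exposed to compounds (0.1 nM-10 μM) for 30 min. Intracellular Ca2+ measured on FLIPR; antagonist format.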

| SMILES | inhibition at 10 µM (CYP3A4) [%] | IC50 (OX2) [µM] | IC50 (OX1) [nM] |
| --- | --- | --- | --- |
| Cc1c(F)ccc(C(=O)N2CCC[C@@H](C)[C@H]2CNc2ncc(C(F)(F)F)cn2)c1-n1nccn1 [Example A345, (4-fluoro-3-methyl-2-(2H-1,2,3-triazol-2-yl)phenyl)((2S,3R)-3-methyl-2-(((5-(trifluoromethyl)pyrimidin-2-yl)amino)methyl)piperidin-1-yl)methanone] | 60 | > 5 | 1 |
| Cc1cc(F)cc(C(=O)N2CCC[C@@H](C)[C@H]2CNc2ncc(C(F)(F)F)cn2)c1-n1nccn1 [Example A349, (5-fluoro-3-methyl-2-(2H-1,2,3-triazol-2-yl)phenyl)((2S,3R)-3-methyl-2-(((5-(trifluoromethyl)pyrimidin-2-yl)amino)methyl)piperidin-1-yl)methanone] | 59 | > 1 | 2 |
| C[C@@H]1CCCN(C(=O)c2c(F)ccc(F)c2-c2ncccn2)[C@@H]1CNc1ncc(C(F)(F)F)cn1 [Example A335, (3,6-difluoro-2-(pyrimidin-2-yl)phenyl)((2S,3R)-3-methyl-2-(((5-(trifluoromethyl)pyrimidin-2-yl)amino)methyl)piperidin-1-yl)methanone] | 44 | > 5 | 4 |
| Cc1c(F)ccc(C(=O)N2CCC[C@@H](C)[C@H]2CNc2ncc(C(F)(F)F)cn2)c1-c1ncccn1 [Example A347, (4-fluoro-3-methyl-2-(pyrimidin-2-yl)phenyl)((2S,3R)-3-methyl-2-(((5-(trifluoromethyl)pyrimidin-2-yl)amino)methyl)piperidin-1-yl)methanone] | 35 | > 5 | 2 |
| Cc1ccc(-n2nccn2)c(C(=O)N2CCC[C@@H](C)[C@H]2COc2ccc(C(F)(F)F)cn2)c1 [Example A106] | 54 | 2.3 | 7 |
| C[C@@H]1CCCN(C(=O)c2ccc(F)c(F)c2-n2nccn2)[C@@H]1CNc1ccc(C(F)(F)F)cn1 [Example A324, (3,4-Difluoro-2-(2H-1,2,3-triazol-2-yl)phenyl)((2S,3R)-3-methyl-2-(((5-(trifluoromethyl)pyridin-2-yl)amino)methyl)piperidin-1-yl)methanone] | 87 | 0.49 | 1 |
| Cc1ccc(C(=O)N2CCC[C@@H](C)[C@H]2CNc2ncc(C(F)(F)F)cn2)c(-c2ncccn2)c1F [Example A359, (3-fluoro-4-methyl-2-(pyrimidin-2-yl)phenyl)((2S,3R)-3-methyl-2-(((5-(trifluoromethyl)pyrimidin-2-yl)amino)methyl)piperidin-1-yl)methanone] | 52 | > 5 | 6 |
| Cc1cc(C(=O)N2CCC[C@@H](C)[C@H]2CNc2ncc(C(F)(F)F)cn2)c(-n2nccn2)cc1F [Example A369, (4-fluoro-5-methyl-2-(2H-1,2,3-triazol-2-yl)phenyl)((2S,3R)-3-methyl-2-(((5-(trifluoromethyl)pyrimidin-2-yl)amino)methyl)piperidin-1-yl)methanone] | 60 | 3 | 4 |
| Cc1cc(F)c(-n2nccn2)c(C(=O)N2CCC[C@@H](C)[C@H]2CNc2ccc(C(F)(F)F)cn2)c1 [Example A372, (3-Fluoro-5-methyl-2-(2H-1,2,3-triazol-2-yl)phenyl)((2S,3R)-3-methyl-2-(((5-(trifluoromethyl)pyridin-2-yl)amino)methyl)piperidin-1-yl)methanone] | 83 | 0.49 | 1 |
| C[C@@H]1CCCN(C(=O)c2c(-c3ncccn3)ccc(F)c2F)[C@@H]1CNc1ccc(C(F)(F)F)cn1 [Example A388, (2,3-Difluoro-6-(pyrimidin-2-yl)phenyl)((2S,3R)-3-methyl-2-(((5-(trifluoromethyl)pyridin-2-yl)amino)methyl)piperidin-1-yl)methanone] |  | > 5 | 4 |
| Cc1ccc(-c2ncccn2)c(C(=O)N2CCC[C@@H](C)[C@H]2CNc2ccc(C(F)(F)F)cn2)c1F [Example A320, (2-Fluoro-3-methyl-6-(pyrimidin-2-yl)phenyl)((2S,3R)-3-methyl-2-(((5-(trifluoromethyl)pyridin-2-yl)amino)methyl)piperidin-1-yl)methanone] |  | 1.4 | 2 |
| Cc1ccc(C(=O)N2CCC[C@@H](C)[C@H]2CNc2ccc(C(F)(F)F)cn2)c(-c2ncccn2)c1 [Example A305, ((2S,3R)-3-Methyl-2-(((5-(trifluoromethyl)pyridin-2-yl)amino)methyl)piperidin-1-yl)(4-methyl-2-(pyrimidin-2-yl)phenyl)methanone] |  | > 5 | 9 |
| Cc1c(F)ccc(-c2ncccn2)c1C(=O)N1CCC[C@@H](C)[C@H]1CNc1ccc(C(F)(F)F)cn1 [Example A386, (3-fluoro-2-methyl-6-(pyrimidin-2-yl)phenyl)((2S,3R)-3-methyl-2-(((5-(trifluoromethyl)pyridin-2-yl)amino)methyl)piperidin-1-yl)methanone] |  | > 5 | 5 |
| C[C@@H]1CCCN(C(=O)c2ccc(F)cc2-c2ncccn2)[C@@H]1CNc1ccc(C(F)(F)F)cn1 [Example A234, (4-Fluoro-2-(pyrimidin-2-yl)phenyl)((2S,3R)-3-methyl-2-(((5-(trifluoromethyl)pyridin-2-yl)amino)methyl)piperidin-1-yl)methanone] |  | > 5 | 11 |
| C[C@@H]1CCCN(C(=O)c2ccc(F)cc2-c2ncccn2)[C@@H]1CNc1ncc(C(F)(F)F)cn1 [Example A235, (4-Fluoro-2-(pyrimidin-2-yl)phenyl)((2S,3R)-3-methyl-2-(((5-(trifluoromethyl)pyrimidin-2-yl)amino)methyl)piperidin-1-yl)methanone] |  | 2.4 | 12 |
| Cc1c(F)ccc(C(=O)N2CCC[C@@H](C)[C@H]2CNc2ccc(C(F)(F)F)cn2)c1-c1ncccn1 [Example A346, (4-fluoro-3-methyl-2-(pyrimidin-2-yl)phenyl)((2S,3R)-3-methyl-2-(((5-(trifluoromethyl)pyridin-2-yl)amino)methyl)piperidin-1-yl)methanone] | 62 | 4.2 |  |
| Cc1ccc(F)c(C(=O)N2CCC[C@@H](C)[C@H]2CNc2ncc(C(F)(F)F)cn2)c1-c1ncccn1 [Example A355, (6-fluoro-3-methyl-2-(pyrimidin-2-yl)phenyl)((2S,3R)-3-methyl-2-(((5-(trifluoromethyl)pyrimidin-2-yl)amino)methyl)piperidin-1-yl)methanone] | 25 | 0.87 |  |
| Cc1ccc(-n2cnc(C(F)(F)F)n2)c(C(=O)N2CC3CCCC3C2CNc2nc3cc(Cl)ccc3o2)c1 (centres unmarked) [Example A72, (1-(((5-Chlorobenzo[d]oxazol-2-yl)amino)methyl)hexahydrocyclopenta[c]pyrrol-2(1H)-yl)(5-methyl-2-(3-(trifluoromethyl)-1H-1,2,4-triazol-1-yl)phenyl)methanone] |  | 3.9 | 2400 |
| Cc1ccc(-c2cnn(C)c2)c(C(=O)N2CC3CCCC3C2CNc2nc3cc(Cl)ccc3o2)c1 (centres unmarked) [Example A70, (1-(((5-Chlorobenzo[d]oxazol-2-yl)amino)methyl)hexahydrocyclopenta[c]pyrrol-2(1H)-yl)(5-methyl-2-(1-methyl-1H-pyrazol-4-yl)phenyl)methanone] |  | 7.8 | 2500 |
